Tests used:
[1] = tested on: A549; assay: Cytotoxicity against human A549 cells assessed as cell growth inhibition measured after 48 hrs by MTT assay; type: functional, cell-based; details: A549, 48 h
[2] = tested on: HepG2; assay: Cytotoxicity against human HepG2 cells assessed as cell growth inhibition measured after 48 hrs by MTT assay; type: functional, cell-based; details: HepG2, 48 h
[3] = tested on: HeLa; assay: Cytotoxicity against human HeLa cells assessed as cell growth inhibition; type: functional, cell-based
[4] = tested on: MGC-803; assay: Cytotoxicity against human MGC-803 cells assessed as cell growth inhibition; type: functional, cell-based
[5] = tested on: HepG2; assay: Cytotoxicity against human HepG2 cells assessed as cell growth inhibition; type: functional, cell-based
[6] = tested on: A549; assay: Cytotoxicity against human A549 cells assessed as cell growth inhibition; type: functional, cell-based
[7] = tested on: MDA-MB-231; assay: Cytotoxicity against human MDA-MB-231 cells assessed as cell growth inhibition; type: functional, cell-based
[8] = tested on: MGC-803; assay: Antitumor activity against human MGC-803 cells xenografted in mouse assessed as inhibition of tumor growth at 50 mg/kg, po administered relative to control; type: functional; details: read-out: TGI
[9] = tested on: PANC-1; assay: Cytotoxicity against human PANC-1 cells assessed as cell growth inhibition measured after 72 hrs XTT assay; type: functional, cell-based; details: PANC-1, 72 h
[10] = tested on: PC-3; assay: Cytotoxicity against human PC-3 cells assessed as cell growth inhibition measured after 72 hrs XTT assay; type: functional, cell-based; details: PC-3, 72 h
[11] = Phototoxicity against rat AY-27 cells assessed as cell growth inhibition incubated for 2 hrs followed by diode laser illumination in presence of HAL by MTT assay relative to control; type: functional; design: scale not given: the % may be the effect or the level left
[12] = tested on: MCF7; assay: Cytotoxicity against human MCF7 cells assessed as cell growth inhibition by MTT assay; type: functional, cell-based
[13] = target: T1, Estrogen receptor (Homo sapiens, UniProt P03372); assay: Inhibition of human recombinant ERalpha expressed in baculovirus expression system measured after 20 mins by fluorescent polarisation Assay
T1 sequence (P03372 whole entry): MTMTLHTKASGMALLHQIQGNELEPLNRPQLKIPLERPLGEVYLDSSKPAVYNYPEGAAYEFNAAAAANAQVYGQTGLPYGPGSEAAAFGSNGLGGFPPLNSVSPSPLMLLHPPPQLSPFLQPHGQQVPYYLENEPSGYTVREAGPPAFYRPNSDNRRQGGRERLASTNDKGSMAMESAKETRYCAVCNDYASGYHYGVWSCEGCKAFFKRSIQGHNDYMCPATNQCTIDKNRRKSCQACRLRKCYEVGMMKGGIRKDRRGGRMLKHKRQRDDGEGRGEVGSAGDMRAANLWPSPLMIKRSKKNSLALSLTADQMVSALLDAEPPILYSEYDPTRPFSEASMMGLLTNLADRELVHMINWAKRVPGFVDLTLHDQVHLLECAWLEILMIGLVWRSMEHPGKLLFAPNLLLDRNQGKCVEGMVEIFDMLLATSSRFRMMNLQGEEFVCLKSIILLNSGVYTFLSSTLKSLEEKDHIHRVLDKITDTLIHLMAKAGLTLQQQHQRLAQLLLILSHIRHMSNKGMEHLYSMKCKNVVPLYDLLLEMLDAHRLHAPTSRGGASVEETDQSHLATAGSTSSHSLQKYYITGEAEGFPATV

[14] = target: Estrogen receptor beta (Homo sapiens, UniProt Q92731); assay: Inhibition of human recombinant ERbeta expressed in baculovirus expression system measured after 20 mins by fluorescent polarisation Assay
Sequence of Estrogen receptor beta (Q92731 whole entry): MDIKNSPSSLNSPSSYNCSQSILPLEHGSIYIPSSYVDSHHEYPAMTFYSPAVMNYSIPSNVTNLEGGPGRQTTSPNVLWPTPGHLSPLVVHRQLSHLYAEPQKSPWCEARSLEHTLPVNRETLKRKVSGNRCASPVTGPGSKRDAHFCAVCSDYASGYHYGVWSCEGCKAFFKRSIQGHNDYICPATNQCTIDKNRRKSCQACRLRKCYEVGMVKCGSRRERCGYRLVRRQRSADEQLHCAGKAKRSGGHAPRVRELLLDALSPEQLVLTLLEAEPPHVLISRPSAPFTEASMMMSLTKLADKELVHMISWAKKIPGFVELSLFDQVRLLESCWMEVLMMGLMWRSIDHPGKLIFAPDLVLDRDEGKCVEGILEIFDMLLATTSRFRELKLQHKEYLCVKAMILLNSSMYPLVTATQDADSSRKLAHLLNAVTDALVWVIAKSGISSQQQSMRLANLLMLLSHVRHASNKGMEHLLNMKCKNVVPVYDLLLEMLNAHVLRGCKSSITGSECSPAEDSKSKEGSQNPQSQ

[15] = tested on: MDA-MB-468; assay: Phototoxicity against human MDA-MB-468 cells assessed as cell growth inhibition incubated for 24 hrs followed by LED illumination by MTT assay; type: functional, cell-based; details: MDA-MB-468, light or radiation study

SMILES | IC50 [1] [nM] | IC50 [2] [nM] | IC50 [3] [nM] | IC50 [6] [nM] | IC50 [7] [nM] | further results
COc1ccc(/C=C\c2cc(OC)c(OC)c(OC)c2)cc1OC(=O)C1CC(C)(C)N(O)C1(C)C (stereo not drawn) | 42 | 1830 |  |  |  | 
COc1ccc(/C=C\c2cc(OC)c(OC)c(OC)c2)cc1OC(=O)Cn1cc(F)c(=O)[nH]c1=O |  |  | 31 | < 0.3 | 400 | IC50 [4]: < 0.3 nM; IC50 [5]: 22.8 nM; inhibition in vivo at 50 mg/kg [8]: 75%
COc1ccc(/C=C\c2cc(OC)c(OC)c(OC)c2)cc1OC(=O)CCn1cc(F)c(=O)[nH]c1=O |  |  | 30 | < 0.3 | 80600 | IC50 [4]: < 0.3 nM; IC50 [5]: 7330 nM
CC[C@H](C)[C@H](NC(=O)[C@@H](N)CC(C)C)C(=O)N[C@@H](Cc1ccc(O)cc1)C(=O)N1CCC[C@H]1C(=O)N[C@@H](CCCNC(=N)N)C(=O)N[C@@H](CCCNC(=N)N)C(=O)NCCCCCC(NC(=O)[C@@H](CCCNC(=N)N)NC(=O)[C@@H](CCCNC(=N)N)NC(=O)[C@@H]1CCCN1C(=O)[C@H](Cc1ccc(O)cc1)NC(=O)[C@@H](NC(=O)[C@@H](N)CC(C)C)[C@@H](C)CC)C(=O)NC(CCCCNC(=O)C(CCCCNC(=O)[C@H](CCCNC(=N)N)NC(=O)[C@H](CCCNC(=N)N)NC(=O)[C@@H]1CCCN1C(=O)[C@H](Cc1ccc(O)cc1)NC(=O)[C@@H](NC(=O)[C@@H](N)CC(C)C)[C@@H](C)CC)NC(=O)[C@H](CCCNC(=N)N)NC(=O)[C@H](CCCNC(=N)N)NC(=O)[C@@H]1CCCN1C(=O)[C@H](Cc1ccc(O)cc1)NC(=O)[C@@H](NC(=O)[C@@H](N)CC(C)C)[C@@H](C)CC)C(=O)NCCC(=O)NC(CCCCNC(=O)CCOCCOCCNC(=O)CCCCC(=O)Oc1cc(/C=C\c2cc(OC)c(OC)c(OC)c2)ccc1OC)C(N)=O (stereo partly drawn) |  |  |  |  |  | IC50 [9]: 500 nM; IC50 [10]: 850 nM
COc1ccc(/C=C\c2cc(OC)c(OC)c(OC)c2)cc1OC(=O)C1=CC(C)(C)N(O)C1(C)C | 160 | 3270 |  |  |  | 
COc1ccc(/C=C\c2cc(OC)c(OC)c(OC)c2)cc1OC(=O)C1CC(C)(C)N(O)C(C)(C)C1 | 170 | 11200 |  |  |  | 
CCN(CC)c1ccc2c(-c3ccccc3C(=O)OCC3CCN(/C=C/C(=O)Oc4cc(/C=C\c5cc(OC)c(OC)c(OC)c5)ccc4OC)CC3)c3ccc(=[N+](CC)CC)cc-3oc2c1.[Cl-] |  |  |  |  |  | Activity [11]: 100%
COc1ccc(/C=C\c2cc(OC)c(OC)c(OC)c2)cc1OC(=O)N(C)CCOc1ccc(C(=C2CCC(C)CC2)c2ccc(O)cc2)cc1 (stereo not drawn) |  |  |  |  |  | IC50 [12]: 5.7 nM; IC50 [13]: 15 nM; IC50 [14]: 115 nM
COc1ccc(/C=C\c2cc(OC)c(OC)c(OC)c2)cc1OC(=O)C1=CC(C)(C)N(O)C(C)(C)C1 | 150 | 3580 |  |  |  | 
COc1ccc(/C=C\c2cc(OC)c(OC)c(OC)c2)cc1O [COMBRETASTATIN A4] | 35 | 2390 | 400 | 2.54 | 3.3 | IC50 [4]: 20.6 nM; IC50 [5]: 12.8 nM; IC50 [15]: 16 nM
O=c1[nH]cc(F)c(=O)[nH]1 [FLUOROURACIL] |  |  | 113 | 34900 | 97000 | 
CCc1c2c(nc3ccc(OC(=O)N4CCC(N5CCCCC5)CC4)cc13)-c1cc3c(c(=O)n1C2)COC(=O)[C@]3(O)CC [IRINOTECAN] | 2000 | 34100 |  |  |  | 

Source: ChEMBL document CHEMBL5214931, “Recent advances in combretastatin A-4 codrugs for cancer therapy” (Eur J Med Chem, 2022)
